Experiment [1] deals with Human dermal papilla cells (hDPC). The experiment in a line: CCK-8 proliferation of dermal papilla cells in serum-free medium treated with rotenone. Type of experiment: cell-based. To be noted: rotenone 10 to 100 pM, 72 hours, compared to control group (untreated) and PromoCell medium, FIG. 1. How it is done:
Human dermal papilla cells (hDPC) purchased from PromoCell were inoculated in a Follicle Dermal Papilla cell Growth media (Promocell, Heidelberg, Germany) supplemented with 1% Antibiotic and Antimycotic Hyclone sv30079.91 (hereinafter referred to as Promocell medium), and a serum-free medium, and cultured in a 5% carbon dioxide incubator at 37° C. to prepare cells. The prepared human dermal papilla cells (hDPCs) were seeded at a concentration of 2×10^3/well into 96-well plates, in which a serum-free medium treated with different concentrations (0, 1, 10, 100, 1000 pM) of rotenone (Tocris Bioscience, UK) was put, in a Follicle Dermal Papilla cell Growth media as a commercially available medium, and then cultured for 72 hours. Then, the culture medium in each well was removed, then added to 10 ul CCK-8 reagent and 90 ul medium, respectively, and cultured for 2 hours at a temperature of 37° C. The absorbance of the supernatant was measured at 450 nm using an ELISA reader to confirm the extent of cell proliferation.

Experiment [2] has the same test system. Kind of experiment: Passage culture of dermal papilla cells in albumin-added serum-free medium in the presence or absence of rotenone (density, doubling time, accumulated cell number, viability). Type of experiment: cell-based. On the procedure:
hDPCs were prepared in the same manner as in Example 1. […] The hDPCs were inoculated at a concentration of 1.52×10^5/flask. After culturing in a 5% carbon dioxide incubator at 37° C., photographs of the cells were taken before passage to confirm the density of dermal papilla cells according to the rotenone treatment.
On the other hand, each time the density of the cells proliferated to 90% or more, the cells were passaged. During the passage, the cells were detached from each flask by the use of TrypLE Express, and then the cells were centrifuged. The supernatant was discarded to leave only the cells in the lower layer. The cells were well resuspended by adding a condition-based medium, and then the cell numbers were measured using NC250™ (Chemometec, Denmark). Using the measured cell number and culture time, the doubling time and accumulated cell numbers per day were calculated using the following Equation.
A=previous passage, B=current passage
Doubling time=ln(2)×(Δtime between B and A)/ln(count B/count A) [Equation 1]
Accumulated cell number (ACN)=ACN of A×cell count of B/seeding number [Equation 2]
Each time the density of the cells proliferated to 90% or more, the cells were passaged. During the passage, the cells were detached from each flask by the use of TrypLE Express, and then the cells were centrifuged. The supernatant was discarded to leave only the cells in the lower layer. The cells were well resuspended by adding a condition-based medium, and then the cell viability was measured using NC250™(Chemometec, Denmark) at each passage.

Experiment [3] shares this test system. The experiment in a line: Flow cytometry of dermal papilla cell biological markers. Type of experiment: cell-based. The settings on record: serum-free medium with 0.1 g/L albumin and 1 to 100 pM rotenone versus control not treated with rotenone; FIG. 4. On the procedure: The cells were detached from each flask by the use of TrypLE Express, and then the cells were centrifuged. The supernatant was discarded to leave only the cells in the lower layer. The cells were fixed for 15 minutes using a 4% formaldehyde solution, and then reacted on ice for 10 minutes using a 0.5% tween-20 permeabilization solution to prepare cells. The prepared cells were well resuspended in PBS supplemented with 1% FBS, and then the cells were stained using an antibody serving as a previously selected biological marker. CD34 and HLA-DR were selected as negative markers, and alkaline phosphatase, versican, and CD105 were selected as positive markers. After fixing the stained cells with 4% formaldehyde solution for 15 minutes, and flow cytometry was performed using CytoFLEX (Beckman Coulter, USA).

Experiment [4] has as its system cell division. To be noted: background statement; cited from earlier work.

Each structure is given as a SMILES string.

Turning to `C=C(C)[C@H]1Cc2c(ccc3c2OC2COc4cc(OC)c(OC)cc4C2C3=O)O1` (stereo in doubt) [rotenone, (2R,6aS,12aS)-1,2,6,6a,12 ,12a-hexahydro-2-isopropenyl-8,9-dimethoxychromeno[3,4-b]furo(2,3-h)chromen-6-one], the “proliferation of dermal papilla cells (CCK-8, absorbance 450 nm)” value in experiment [1] was “proliferation of dermal papilla cells increases”. The “cell density of dermal papilla cells” value in experiment [2] (10 pM rotenone versus rotenone-untreated group, serum-free medium with 0.1 g/L albumin, FIG. 3a) is given as “higher cell density”. The doubling time entry in experiment [2] (rotenone -treated versus rotenone-untreated group, serum-free medium with 0.1 g/L albumin, FIG. 3b) is listed as “lower doubling time”. The cell viability entry in experiment [2] (rotenone-treated versus rotenone-untreated group, 0.1 g/L albumin, each passage, FIG. 3d) is recorded as “higher cell viability”. In addition, the “accumulated cell numbers over time” value in experiment [2] (rotenone-treated versus rotenone-untreated group, 0.1 g/L albumin, FIG. 3c) is “higher”. In experiment [3], the “biological positive markers (alkaline phosphatase, versican, CD105)” value is on record as “maintained at higher levels” and the “negative markers (CD34, HLA-DR)” value is recorded as “maintained at lower levels”. For the same molecule, the “concentrations at which rotenone is known to inhibit cell division” value in experiment [4] is 10 to 100 nM.
